Where a name gives a salt, the structure may show the parent alone.
Tests used:
Assay type in all cases: in vivo
[1] = tested on: corn (Beck's hybrid 5828 YH); assay: Soil drench of corn seedlings under drought, growth during V2-V3 transition; settings: for % Δ in Plant Height Compared to Control: 11 DAP to 14 DAP, vs water-only control; for change in plant height during V2 to V3 transition compared to water-only control: soil drench at planting and day 3, 11 to 14 days after planting; for Plant Growth during the transition of V2-V3 stage (11 DAP to 14 DAP): soil drench, each component 438.5 mL/hectare, droughted conditions
Text: The anti-respirant also functioned as an infiltration surfactant (above-soil surfactant or penetrant) and the anti-desiccant functioned as a humectant. […] A combined treatment with betaine-HCl (osmoprotectant), an infiltration surfactant (anti-respirant) and a humectant (anti-desiccant) was also compared with other drench treatments and a water-only control. Glycerol, a polyol compound that has three hydroxyl groups that are responsible for its solubility in water and its hydroscopic nature, was selected as a viscous humectant to combine with the betaine-HCl osmoprotectant and the infiltration surfactant. This triple treatment combination was selected based on its mode of action properties in soil drench applications that promote the retention and management of moisture by attracting moisture and condensing it for contact to the germinating seed and/or growing plant. The treatment combination was provided as a soil drench at the time of planting and again at emergence to promote rapid growth at the early V stages of development, enhance early vigor, provide for a robust stand establishment, and protect against the effects of drought during early seedling establishment. The betaine-HCl osmoprotectant was provided at a final application concentration of 83.49 mM. The infiltration surfactant was diluted in water at the recommended application use rate using a ratio of 1:1600 (surfactant to water) (52.9 μM). The humectant was provided at a final application treatment of 1% diluted in water (136.8 mM). The individual and combined treatments were provided using the application use rates (Fl. oz/Ac) as specified in Tables 54 and 55. […] In Table 55, the application use rates for all three components were the same. […] Seeds were planted at a depth of 2.54 cm, with two seeds per pot. After planting, seeds were supplied with 50 mL of the each of the treatments (as described in Tables 54 and 55) at room temperature and added to the soil in each pot as a soil drench provided at an equivalent application use rate as specified. […] After application of the second drench, the plants were left un-watered to induce and simulate droughted conditions that may occur during early seedling establishment. […] At 11 days after planting, plant height was determined for each plant in the various treatments. Corn plants provided with treatments as described in Table 55 received an additional 50 mL of water at 11 days after planting.

[2] = tested on: corn (DKC 58-89, DKC 52-61, DKC 65-81); assay: V5 corn yield, choline chloride, calcium chloride and PLURONIC F-68; settings: for yield increase compared to base seed treatment control plants: foliar at V5; for Avg. Yield (Bu/Ac) Trial 1 / Avg. Yield (Bu/Ac) Trial 2: foliar at V5 corn; for Avg. Yield (Bu/Ac) Trial 1: three hybrids (* two hybrids only), trial 1, one location; for Avg. Yield (Bu/Ac) Trial 2: three hybrids; for Avg. Δ in Yield (Bu/Ac): vs base seed treatment control, average of trials 1 and 2
Protocol: In a separate experiment, large acre field trials were conducted using one and two location trials in the US Midwest (IL) planted with three different corn hybrids (DEKALB: DKC 58-89; DKC 52-61; DKC 65-81). Seed from each of the corn hybrids was coated with a seed treatment of EVERGOL® fungicide combined with PONCHO®/VOTIVO® 500. Foliar treatments comprising a non-ionic polyoxyethylene-polyoxypropylene block copolymer surfactant (PLURONIC F-68, an anti-respirant), a quaternary ammonium salt (choline chloride) and/or a di-hydrated salt (calcium chloride) were applied to corn plants at the V5 stage of development. The foliar treatments were applied using the final concentrations and application use rates as described in Table 42. Choline chloride was selected for its osmolyte-like properties. Choline chloride is a precursor of acetylcholine and is involved in the regulation of water resorption in plants. Choline chloride was tested as a foliar application treatment individually and in combination an anti-respirant (PLURONIC F 68 surfactant). Average yield in Bu/Ac was reported for two trials. Trial 1 was conducted at one location and trial 2 was conducted at two locations in the US Midwest (IL). Yield (Bu/Ac) is reported as the average yield across location(s) and as the average for all three hybrids except where indicated in Table 42 and as the average change in yield (Bu/Ac) compared to the yield from the seed treatment control plants. The Base Seed Treatment control plants received only the EVERGOL® fungicide+PONCHO®/VOTIVO® 500 seed treatment and not any foliar treatments.

soybean (Asgrow AG4034) = assay: R2 soybean yield, trehalose, potassium acetate and SILWET L-77; settings: for Avg. Yield (Bu/Ac): foliar at R2 soybean AG4034, three locations; for Avg. Δ in Yield (Bu/Ac): vs base seed treatment control
Text: In another experiment, large acre yield replicated trials of soybean (variety: Asgrow AG4034) were planted from seed treated with a base seed treatment package containing […]® fungicide and PONCHO®/VOTIVO® 500 in three locations in the US Midwest (IL). […] Trehalose is a non-reducing carbohydrate resistant to acid hydrolysis and stable in solution under high temperatures and acidic conditions. Trehalose was applied separately and in combination with a non-blended organosilicone surfactant ([…]-77) as a foliar spray application to soybean plants. Final concentrations at application were as follows: […]

[3] = tested on: corn (Beck's hybrid 5828 YH); assay: Corn growth rate under droughted conditions, alternative osmoprotectants; settings: two weeks un-watered; Anti-Respirant Control A 29.0%
Text: Stachydrine was selected as an osmoprotectant that acts as a negative control due to its functional role in the induction of nodulation (Phillips, D. A., Joseph, C. M., Maxwell, C. A., “Trigonelle and stachydrine released from alfalfa seeds activate NodD2 protein in Rhizobium meliloti” (1992) Plant Physiology 99: 1526-1531). Stachydrine acts through a different mode of action as compared to the betaine-HCl osmoprotectant. Plant growth rates under droughted conditions were compared in corn treated with foliar applications comprising betaine-HCl, strachydrine or myo-inositol (see Table 37). Corn (Beck's hybrid 5828 YH) plants were planted in an environmentally controlled growth facility and grown using the conditions described in the first paragraph of this example. At 1.5 weeks, the plants were provided with another 50 mL of water per pot and plant height was measured for each plant. Plants were then segregated to prevent any cross contamination between the foliar treatments. […] Relative percent growth rate under droughted conditions was calculated for each plant in each treatment replicate using the percent (%) growth rate equation (as provided above in this Example). […]

Which “% Δ in Plant Height Compared to Control” value [1] does the source give for `OCC(O)CO` [humectant-only control, glycerol] here?
The value was “+3%”.

What about the “change in plant height during V2 to V3 transition compared to water-only control” value [1] of the same molecule?
The value was “+3%”.

And the “Plant Growth during the transition of V2-V3 stage (11 DAP to 14 DAP)” value [1]?
Its value is 2.98 cm.

Which results are given for `C[N+](C)(C)CCO.[Cl-]` [choline chloride]?
yield increase compared to base seed treatment control plants [2]: +8.5 Bu/Ac; Avg. Yield (Bu/Ac) Trial 1 [2]: 207.3* Bu/Ac; Avg. Yield (Bu/Ac) Trial 2 [2]: 157.2 Bu/Ac; Avg. Δ in Yield (Bu/Ac) [2]: +8.5 Bu/Ac

`[Ca+2].[Cl-].[Cl-]` [calcium chloride] was tested. Which “yield increase compared to base seed treatment control plants” value [2] did it give?
The value was “+11.8 Bu/Ac”.

How did the “Avg. Yield (Bu/Ac) Trial 1” value [2] turn out when `O.O.[Ca+2].[Cl-].[Cl-]` [Calcium Chloride (dihydrate)] was run?
The value was 201.4 Bu/Ac.

And the “Avg. Yield (Bu/Ac) Trial 2” value [2]?
The value was 169.6 Bu/Ac.

And the “Avg. Δ in Yield (Bu/Ac)” value [2]?
The value was “+11.8 Bu/Ac”.

With `CC(=O)[O-].[K+]` [Potassium Acetate] as the molecule, how does the “Avg. Yield (Bu/Ac)” value (soybean (Asgrow AG4034)) read?
The value was 67.2 Bu/Ac.

What about the “Avg. Δ in Yield (Bu/Ac)” value (soybean (Asgrow AG4034); three locations) of the same molecule?
The value was “+0.35 Bu/Ac”.

For `O[C@H]1[C@H](O)[C@@H](O)[C@H](O)[C@@H](O)[C@H]1O` [Myo-inositol, myo-inositol], which “Relative Growth Rate (%) under Droughted Conditions” value [3] is on record?
Its value is 31.1%.

Which results are given for `C[N+](C)(C)CC(=O)O` [osmoprotectant-only control, betaine-HCl]?
% Δ in Plant Height Compared to Control [1]: +8%; change in plant height during V2 to V3 transition compared to water-only control [1]: +8%; Plant Growth during the transition of V2-V3 stage (11 DAP to 14 DAP) [1]: 3.11 cm

Which results are given for `OC[C@H]1O[C@H](O[C@H]2O[C@H](CO)[C@@H](O)[C@H](O)[C@H]2O)[C@H](O)[C@@H](O)[C@@H]1O` [trehalose]?
average change in soybean yield compared to seed treatment-only control (soybean (Asgrow AG4034); R2, trehalose 6.4 Fl. oz/Ac, SILWET L-77 3.2 Fl. oz/Ac, three locations): +1.49 Bu/Ac; Avg. Yield (Bu/Ac) (soybean (Asgrow AG4034)): 68.3 Bu/Ac; Avg. Δ in Yield (Bu/Ac) (soybean (Asgrow AG4034); three locations): +1.49 Bu/Ac
